Measurements as given in ChEMBL document CHEMBL5352493, “Dual inhibitors of ASK1 and PDK1 kinases: Design, synthesis, molecular docking and mechanism studies of N-benzyl pyridine-2-one containing derivatives as anti-fibrotic agents” (Eur J Med Chem, 2023).
The source made the active and inactive calls. No cut-off for these calls is given here.

Key:
[1] = Antiproliferative against HLF1 cells measured after 48 hrs by CCK8 assay; type: toxicity, cell-based; settings: human, HFL1 cells (description prints HLF1)
[2] = test system: HFL1; assay: Downregulation of phosphorylated JNK in TGF-beta1 induced HFL1 cells at 5 to 10 uM for 24 hrs by Western blotting analysis; type: functional, cell-based; settings: Homo sapiens, dose 5-10 µM
[3] = test system: HFL1; assay: Downregulation of phosphorylated ASK1 in TGF-beta1 induced HFL1 cells at 5 to 10 uM for 24 hrs by Western blotting analysis; type: functional, cell-based; settings: Homo sapiens, dose 5-10 µM
[4] = test system: HFL1; assay: Induction of apoptosis in HLF1 cells assessed as late apoptotic cells at 5 uM incubated for 24 hrs measured by annexinV-FITC/PI based flow cytometric analysis (reference value: 0.08%); type: functional, Homo sapiens
[5] = test system: HFL1; assay: Induction of apoptosis in HLF1 cells assessed as decrease in antiapoptotic Bcl-2 protein at 5 to 10 uM for 24 hrs by Western blotting analysis; type: functional, cell-based; settings: Homo sapiens, dose 5-10 µM
[6] = test system: HFL1; assay: Induction of apoptosis in HLF1 cells assessed as viable cells at 15 uM incubated for 24 hrs measured by annexinV-FITC/PI based flow cytometric analysis (reference value: 88.3%); type: functional; settings: Homo sapiens, read-out: Activity
[7] = test system: HFL1; assay: Downregulation of phosphorylated p38 in TGF-beta1 induced HFL1 cells at 5 to 10 uM for 24 hrs by Western blotting analysis; type: functional, cell-based; settings: Homo sapiens, dose 5-10 µM
[8] = test system: HFL1; assay: Antifibrotic activity in TGF-beta1 induced HLF1 cells assessed as decrease in alpha SMA expression level measured at 5 to 10 uM after 24 hrs by Western blotting analysis; type: functional, cell-based; settings: Homo sapiens, dose 5-10 µM
[9] = test system: HFL1; assay: Induction of apoptosis in HLF1 cells assessed as viable cells at 5 uM incubated for 24 hrs measured by annexinV-FITC/PI based flow cytometric analysis (reference value: 88.3%); type: functional; settings: Homo sapiens, read-out: Activity
[10] = test system: HFL1; assay: Induction of apoptosis in HLF1 cells assessed as necrotic cells at 10 uM incubated for 24 hrs measured by annexinV-FITC/PI based flow cytometric analysis (reference value: 0%); type: functional, Homo sapiens
[11] = test system: HFL1; assay: Induction of apoptosis in HLF1 cells assessed as late apoptotic cells at 10 uM incubated for 24 hrs measured by annexinV-FITC/PI based flow cytometric analysis (reference value: 0.08%); type: functional, Homo sapiens
[12] = test system: HFL1; assay: Induction of apoptosis in HLF1 cells assessed as viable cells at 10 uM incubated for 24 hrs measured by annexinV-FITC/PI based flow cytometric analysis (reference value: 88.3%); type: functional; settings: Homo sapiens, read-out: Activity
[13] = Antiproliferative against rat NRK-49F cells measured after 48 hrs by CCK8 assay; type: toxicity, cell-based
[14] = molecular target: T1, Mitogen-activated protein kinase kinase kinase 5 (Homo sapiens, UniProt Q99683); assay: Inhibition of human recombinant ASK1 using MBP as substrate preincubated for 1 hr followed by reagent addition incubated for 40 mins by ATP-Glo kinase assay
T1 sequence (Q99683 whole entry): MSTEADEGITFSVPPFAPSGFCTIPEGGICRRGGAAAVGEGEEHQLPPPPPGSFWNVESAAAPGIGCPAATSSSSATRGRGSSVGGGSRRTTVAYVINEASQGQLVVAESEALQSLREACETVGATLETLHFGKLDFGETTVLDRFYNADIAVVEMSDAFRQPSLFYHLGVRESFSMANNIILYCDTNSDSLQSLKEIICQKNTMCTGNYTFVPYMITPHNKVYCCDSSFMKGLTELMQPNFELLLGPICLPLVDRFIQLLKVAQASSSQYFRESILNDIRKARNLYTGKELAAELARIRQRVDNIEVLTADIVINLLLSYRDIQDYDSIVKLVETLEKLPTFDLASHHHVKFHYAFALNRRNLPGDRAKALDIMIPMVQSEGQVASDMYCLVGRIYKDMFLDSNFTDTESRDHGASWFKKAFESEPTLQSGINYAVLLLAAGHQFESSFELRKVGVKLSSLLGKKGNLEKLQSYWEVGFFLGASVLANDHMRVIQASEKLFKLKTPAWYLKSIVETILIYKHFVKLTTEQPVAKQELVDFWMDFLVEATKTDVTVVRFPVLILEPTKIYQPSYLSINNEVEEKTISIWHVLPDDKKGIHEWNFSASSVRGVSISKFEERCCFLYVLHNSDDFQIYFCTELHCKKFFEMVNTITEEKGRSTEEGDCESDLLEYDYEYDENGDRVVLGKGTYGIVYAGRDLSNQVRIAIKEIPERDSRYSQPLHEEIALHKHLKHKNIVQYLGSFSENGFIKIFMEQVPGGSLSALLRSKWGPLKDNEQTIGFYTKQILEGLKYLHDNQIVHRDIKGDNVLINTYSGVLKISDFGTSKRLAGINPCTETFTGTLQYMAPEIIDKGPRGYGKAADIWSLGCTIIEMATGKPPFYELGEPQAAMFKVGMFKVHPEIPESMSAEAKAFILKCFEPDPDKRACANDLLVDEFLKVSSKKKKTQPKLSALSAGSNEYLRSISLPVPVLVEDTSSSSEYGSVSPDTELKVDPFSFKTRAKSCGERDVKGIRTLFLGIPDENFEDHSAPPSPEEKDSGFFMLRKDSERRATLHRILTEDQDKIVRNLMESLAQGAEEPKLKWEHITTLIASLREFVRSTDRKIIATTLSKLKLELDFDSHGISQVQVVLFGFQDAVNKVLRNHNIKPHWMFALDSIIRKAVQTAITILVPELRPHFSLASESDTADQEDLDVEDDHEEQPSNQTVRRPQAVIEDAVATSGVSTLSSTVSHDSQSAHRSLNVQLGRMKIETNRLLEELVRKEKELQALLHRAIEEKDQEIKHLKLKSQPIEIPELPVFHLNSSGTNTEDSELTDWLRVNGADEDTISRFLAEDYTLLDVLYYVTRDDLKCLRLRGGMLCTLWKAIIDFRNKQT

[15] = test system: HFL1; assay: Induction of apoptosis in HLF1 cells assessed as early apoptotic cells at 5 uM incubated for 24 hrs measured by annexinV-FITC/PI based flow cytometric analysis (reference value: 11.6%); type: functional, Homo sapiens
[16] = test system: HFL1; assay: Induction of apoptosis in HLF1 cells assessed as early apoptotic cells at 15 uM incubated for 24 hrs measured by annexinV-FITC/PI based flow cytometric analysis (reference value: 11.6%); type: functional, Homo sapiens
[17] = test system: HFL1; assay: Induction of apoptosis in HLF1 cells assessed as necrotic cells at 5 uM incubated for 24 hrs measured by annexinV-FITC/PI based flow cytometric analysis (reference value: 0%); type: functional, Homo sapiens
[18] = Antiproliferative against human BEAS-2B cells measured after 48 hrs by CCK8 assay; type: toxicity, cell-based
[19] = test system: HFL1; assay: Antifibrotic activity in TGF-beta1 induced HLF1 cells assessed as decrease in phosphorylated smad2 level measured at 5 to 10 uM after 24 hrs by Western blotting analysis; type: functional, cell-based; settings: Homo sapiens, dose 5-10 µM
[20] = Antiproliferative against rat HSC-T6 cells measured after 48 hrs by CCK8 assay; type: toxicity, cell-based
[21] = test system: HFL1; assay: Induction of apoptosis in HLF1 cells assessed as late apoptotic cells at 15 uM incubated for 24 hrs measured by annexinV-FITC/PI based flow cytometric analysis (reference value: 0.08%); type: functional, Homo sapiens
[22] = test system: HFL1; assay: Induction of apoptosis in HLF1 cells assessed as necrotic cells at 15 uM incubated for 24 hrs measured by annexinV-FITC/PI based flow cytometric analysis (reference value: 0%); type: functional, Homo sapiens
[23] = test system: HFL1; assay: Downregulation of phosphorylated PDK1 in TGF-beta1 induced HFL1 cells at 5 to 10 microM for 24 hrs by Western blotting analysis; type: functional, cell-based; settings: Homo sapiens, dose 5-10 µM
[24] = test system: HFL1; assay: Antifibrotic activity in TGF-beta1 induced HLF1 cells assessed as decrease in collagen-I expression level measured at 5 to 10 uM after 24 hrs by Western blotting analysis; type: functional, cell-based; settings: Homo sapiens, dose 5-10 µM
[25] = test system: HFL1; assay: Antifibrotic activity in TGF-beta1 induced HLF1 cells assessed as decrease in phosphorylated smad3 level measured at 5 to 10 uM after 24 hrs by Western blotting analysis; type: functional, cell-based; settings: Homo sapiens, dose 5-10 µM
[26] = test system: HFL1; assay: Induction of apoptosis in HLF1 cells assessed as early apoptotic cells at 10 uM incubated for 24 hrs measured by annexinV-FITC/PI based flow cytometric analysis (reference value: 11.6%); type: functional, Homo sapiens
[27] = test system: HFL1; assay: Downregulation of phosphorylated Akt in TGF-beta1 induced HFL1 cells at 10 microM for 24 hrs by Western blotting analysis; type: functional, cell-based; settings: Homo sapiens

Structure (SMILES): CC(C)n1cc(-c2cc(C(=O)Nc3cccc(-c4nncn4C4CC4)n3)c(=O)n(Cc3ccccc3F)c2)cn1
- IC50 at 48 h [1]: 9.2 µM
- Activity [2]: Active
- Activity [3]: Active
- Activity [4]: 0.092%
- Activity [5]: Active
- viability at 15 µM [6]: 69.9%
- Activity [7]: Active
- Activity [8]: Dose-Dependent Effect
- viability at 5 µM [9]: 80.5%
- Activity [10]: 0%
- Activity [11]: 0.034%
- viability at 10 µM [12]: 74.3%
- IC50 at 48 h [13]: 14.8 µM
- IC50 [14]: 0.00913 µM
- Activity [15]: 19.4%
- Activity [16]: 30%
- Activity [17]: 0%
- IC50 at 48 h [18]: 33 µM
- Activity [19]: Active
- IC50 at 48 h [20]: 25 µM
- Activity [21]: 0.069%
- Activity [22]: 0%
- Activity [23]: Dose-Dependent Effect
- Activity [24]: Dose-Dependent Effect
- Activity [25]: Active
- Activity [26]: 25.6%
- Activity [27]: Active
